Results from ChEMBL document CHEMBL4177700, “Scutellarin inhibits Hela cell growth and glycolysis by inhibiting the activity of pyruvate kinase M2” (Bioorg Med Chem Lett, 2017).
Calls of active or inactive are those of the source. The rule behind the calls is not given here.

Columns and labels:
Pyruvate kinase PKM [1] = target: T1, Pyruvate kinase PKM (Homo sapiens, UniProt P14618); test: Binding affinity to PKM2 in human HeLa cell lysates at 200 uM after 6 hrs by silver staining based LC-MS/MS pull down analysis
Target sequence in this assay (P14618 2-531 limits assumed): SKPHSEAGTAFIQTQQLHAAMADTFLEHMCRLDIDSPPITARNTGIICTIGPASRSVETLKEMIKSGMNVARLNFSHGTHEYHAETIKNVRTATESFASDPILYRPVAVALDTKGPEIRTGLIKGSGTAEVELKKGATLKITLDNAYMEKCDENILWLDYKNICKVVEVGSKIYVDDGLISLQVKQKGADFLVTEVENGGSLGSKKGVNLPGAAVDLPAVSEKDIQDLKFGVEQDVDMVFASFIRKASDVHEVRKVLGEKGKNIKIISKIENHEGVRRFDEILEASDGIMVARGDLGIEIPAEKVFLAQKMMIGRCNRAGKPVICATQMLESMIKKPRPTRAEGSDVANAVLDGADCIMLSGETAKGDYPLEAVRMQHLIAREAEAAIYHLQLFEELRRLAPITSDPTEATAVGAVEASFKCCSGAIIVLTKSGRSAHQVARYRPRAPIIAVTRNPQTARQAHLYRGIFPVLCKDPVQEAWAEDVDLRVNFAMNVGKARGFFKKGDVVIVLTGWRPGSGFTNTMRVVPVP

Pyruvate kinase PKM [2] = target: T1, Pyruvate kinase PKM; test: Inhibition of PKM2 in human HeLa cells assessed as reduction in cellular glycolytic rate after 6 hrs; assay type: cell-based
Target sequence in this assay (P14618 2-531 limits assumed): as above

[3] = Stability in culture medium at 200 uM after 6 hrs by HPLC analysis (reference value: 100%); assay type: physicochemical; conditions: read-out: Stability
[4] = Stability in human HeLa cells at 200 uM after 24 hrs by HPLC analysis (reference value: 100%); assay type: ADME, cell-based; conditions: read-out: Stability
[5] = Stability in culture medium at 200 uM after 24 hrs by HPLC analysis (reference value: 100%); assay type: physicochemical; conditions: read-out: Stability
HeLa [6] = test: Antiproliferative activity against human HeLa cells at 50 to 400 uM after 48 hrs by MTS assay; assay type: functional, cell-based
[7] = Stability in human HeLa cells at 200 uM after 3 hrs by HPLC analysis (reference value: 100%); assay type: ADME, cell-based; conditions: read-out: Stability
[8] = Stability in culture medium at 200 uM after 12 hrs by HPLC analysis (reference value: 100%); assay type: physicochemical; conditions: read-out: Stability
[9] = Stability in human HeLa cells at 200 uM after 6 hrs by HPLC analysis (reference value: 100%); assay type: ADME, cell-based; conditions: read-out: Stability
[10] = Stability in human HeLa cells at 200 uM after 12 hrs by HPLC analysis (reference value: 100%); assay type: ADME, cell-based; conditions: read-out: Stability
[11] = Stability in culture medium at 200 uM after 3 hrs by HPLC analysis (reference value: 100%); assay type: physicochemical; conditions: read-out: Stability
HeLa [12] = test: Induction of apoptosis in human HeLa cells at 200 to 400 uM after 48 hrs by Annexin V/propidium iodide staining based flow cytometry; assay type: functional, cell-based
Pyruvate kinase PKM [13] = target: T1, Pyruvate kinase PKM; test: Binding affinity to PKM2 in human HeLa cells at 100 uM after 6 hrs in presence of biotin by Western blot analysis; assay type: cell-based
Target sequence in this assay (P14618 2-531 limits assumed): as above

Pyruvate kinase PKM [14] = target: T1, Pyruvate kinase PKM; test: Binding affinity to PKM2 in human HeLa cells at 100 uM after 6 hrs by co-immunoprecipitation based Western blot analysis; assay type: cell-based
Target sequence in this assay (P14618 2-531 limits assumed): as above

HeLa [15] = test: Cell cycle arrest in human HeLa cells assessed as accumulation at G2 phase at 200 uM after 48 hrs by […]propidium iodide staining based flow cytometry (reference value: 7.91%); assay type: functional
Pyruvate kinase PKM [16] = target: T1, Pyruvate kinase PKM; test: Binding affinity to PKM2 in human A549 cells at 100 uM after 6 hrs by co-immunoprecipitation based Western blot analysis; assay type: cell-based
Target sequence in this assay (P14618 2-531 limits assumed): as above

HeLa [17] = test: Cell cycle arrest in human HeLa cells assessed as accumulation at G1 phase at 400 uM after 48 hrs by […]propidium iodide staining based flow cytometry (reference value: 66.69%); assay type: functional
HeLa [18] = test: Cell cycle arrest in human HeLa cells assessed as accumulation at S phase at 200 uM after 48 hrs by […]propidium iodide staining based flow cytometry (reference value: 25.41%); assay type: functional
Pyruvate kinase PKM [19] = target: T1, Pyruvate kinase PKM; test: Binding affinity to PKM2 in human MCF7 cells at 100 uM after 6 hrs by co-immunoprecipitation based Western blot analysis; assay type: cell-based
Target sequence in this assay (P14618 2-531 limits assumed): as above

HeLa [20] = test: Cell cycle arrest in human HeLa cells assessed as accumulation at S phase at 400 uM after 48 hrs by […]propidium iodide staining based flow cytometry (reference value: 25.41%); assay type: functional
HeLa [21] = test: Cell cycle arrest in human HeLa cells assessed as accumulation at G1 phase at 200 uM after 48 hrs by […]propidium iodide staining based flow cytometry (reference value: 66.69%); assay type: functional
HeLa [22] = test: Cell cycle arrest in human HeLa cells assessed as accumulation at G2 phase at 400 uM after 48 hrs by […]propidium iodide staining based flow cytometry (reference value: 7.91%); assay type: functional
HeLa [23] = test: Induction of apoptosis in human HeLa cells assessed as increase in cleaved caspase 3 expression level at 100 to 400 uM by Western blot analysis; assay type: functional, cell-based
Homo sapiens = species: Homo sapiens; test: Selectivity ratio of IC50 for recombinant human N-terminal His6/SUMO-tagged PKM1 expressed in Escherichia coli BL21 to IC50 for recombinant human N-terminal His6/SUMO-tagged PKM2 expressed in Escherichia coli BL21
HeLa [24] = test: Down regulation of cyclin B expression level in human HeLa cells at 200 to 400 uM by Western blot analysis; assay type: functional, cell-based
L-lactate dehydrogenase = L-lactate dehydrogenase (Homo sapiens, UniProt V9HWB9); test: Inhibition of LDH (unknown origin) assessed as reduction in NADH oxidation at 200 uM after 30 mins; conditions: 0.5 h
HeLa [25] = test: Induction of apoptosis in human HeLa cells assessed as increase in Bax/Bcl-2 expression level at 100 to 400 uM by Western blot analysis; assay type: functional, cell-based
HeLa [26] = test: Effect on Glut1 expression level in human HeLa cells at 100 to 400 uM after 6 hrs by Western blot analysis; assay type: functional, cell-based
HeLa [27] = test: Activation of MEK/ERK/PIN1 pathway in human HeLa cells assessed as increase in MEK protein expression at 100 uM after 2 to 8 hrs by Western blot analysis; assay type: cell-based
Pyruvate kinase PKM [28] = target: T1, Pyruvate kinase PKM; test: Inhibition of recombinant human N-terminal His6/SUMO-tagged PKM2 expressed in Escherichia coli BL21 using PEP as substrate incubated for 30 mins in presence of ADP by spectrophotometric based LDH enzyme coupled assay
Target sequence in this assay (P14618 whole entry): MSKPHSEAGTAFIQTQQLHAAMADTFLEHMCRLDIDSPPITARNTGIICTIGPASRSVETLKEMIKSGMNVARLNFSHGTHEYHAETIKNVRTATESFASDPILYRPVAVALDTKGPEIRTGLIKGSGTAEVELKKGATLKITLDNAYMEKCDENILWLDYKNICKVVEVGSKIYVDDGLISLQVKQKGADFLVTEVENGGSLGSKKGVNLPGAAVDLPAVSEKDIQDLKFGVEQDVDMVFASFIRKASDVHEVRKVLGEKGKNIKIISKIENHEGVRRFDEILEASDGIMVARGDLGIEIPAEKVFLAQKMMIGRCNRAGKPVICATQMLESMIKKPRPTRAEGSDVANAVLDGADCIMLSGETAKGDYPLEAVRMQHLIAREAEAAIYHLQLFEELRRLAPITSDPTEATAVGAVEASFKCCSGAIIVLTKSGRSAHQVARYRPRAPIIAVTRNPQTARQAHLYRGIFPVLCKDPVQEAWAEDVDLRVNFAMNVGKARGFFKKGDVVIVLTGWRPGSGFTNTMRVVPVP

Pyruvate kinase PKM [29] = target: T1, Pyruvate kinase PKM; test: Inhibition of recombinant human N-terminal His6/SUMO-tagged PKM1 expressed in Escherichia coli BL21 using PEP as substrate incubated for 30 mins in presence of ADP by spectrophotometric based LDH enzyme coupled assay
Target sequence in this assay (P14618 whole entry): as above

HeLa [30] = test: Activation of MEK/ERK/PIN1 pathway in human HeLa cells assessed as increase in phosphorylated ERK1/2 expression at 100 uM after 2 to 8 hrs by Western blot analysis; assay type: cell-based
HeLa [31] = test: Down regulation of CDK1 expression level in human HeLa cells at 200 to 400 uM by Western blot analysis; assay type: functional, cell-based
HeLa [32] = test: Activation of MEK/ERK/PIN1 pathway in human HeLa cells assessed as increase in PIN1 expression at 100 uM after 2 to 8 hrs by Western blot analysis; assay type: cell-based

For NCCOCCOCCNC(=O)CCCC[C@@H]1SC[C@@H]2NC(=O)N[C@@H]21, the Activity (Pyruvate kinase PKM [1]) was “Active”.

For O=C(O)[C@H]1O[C@@H](Oc2cc3oc(-c4ccc(O)cc4)cc(=O)c3c(O)c2O)[C@H](O)[C@@H](O)[C@@H]1O, the inhibition (Pyruvate kinase PKM [2]) was “Dose-dependent effect”.

O=C1N[C@H]2[C@H](CS[C@H]2CCCCC(=O)Oc2ccc(-c3cc(=O)c4c(O)c(O)c(O)cc4o3)cc2)N1 showed a remaining at 6 h, 200 µM [3] of 97%, a remaining at 24 h, 200 µM [4] of 37% and a remaining at 24 h, 200 µM [5] of 49%. For the same molecule, the Activity (HeLa [6]) was “Active”, the remaining at 3 h, 200 µM [7] was 99% and the Activity (Pyruvate kinase PKM [1]) was “Active”. It also gave a remaining at 12 h, 200 µM [8] of 50%, a remaining at 6 h, 200 µM [9] of 85% and a remaining at 12 h, 200 µM [10] of 37%. It also gave a remaining at 3 h, 200 µM [11] of 98%.

With O=C(CCCC[C@@H]1SC[C@@H]2NC(=O)N[C@@H]21)NCCOCCOCCNC(=O)COc1ccc(-c2cc(=O)c3c(O)c(O)c(O)cc3o2)cc1 the Activity (HeLa [12]) was “Active”, the remaining at 6 h, 200 µM [3] was 87% and the Activity (Pyruvate kinase PKM [13]) was “inactive”. The remaining at 24 h, 200 µM [4] was 29%, the Activity (Pyruvate kinase PKM [14]) was “Active” and the remaining at 24 h, 200 µM [5] was 52%. For the same molecule, the Activity (HeLa [15]) was 11.51%, the Activity (Pyruvate kinase PKM [16]) was “Active” and the Activity (HeLa [17]) was 47.56%. The Activity (HeLa [18]) was 25.44%, the Activity (Pyruvate kinase PKM [19]) was “Active” and the Activity (HeLa [6]) was “Active”. For the same molecule, the remaining at 3 h, 200 µM [7] was 98%, the Activity (Pyruvate kinase PKM [1]) was “Active” and the remaining at 12 h, 200 µM [8] was 54%. For the same molecule, the remaining at 6 h, 200 µM [9] was 93%, the remaining at 12 h, 200 µM [10] was 36% and the Activity (HeLa [20]) was 36.92%. It also gave a remaining at 3 h, 200 µM [11] of 89%, an Activity (HeLa [21]) of 63.05% and an Activity (HeLa [22]) of 15.52%.

For O=c1cc(-c2ccc(O)cc2)oc2cc(O)c(O)c(O)c12 [SCUTELLAREIN], the Activity (HeLa [23]) was “Active”, the Activity (HeLa [12]) was “Active” and the Ratio IC50 (Homo sapiens) was 8. For the same molecule, the Activity (HeLa [24]) was “Active”, the “inhibition (INH)” value (L-lactate dehydrogenase) was “Not Active” and the Activity (HeLa [25]) was “Active”. The Activity (HeLa [26]) was “inactive”, the Activity (HeLa [27]) was “Active” and the IC50 (Pyruvate kinase PKM [28]) was 12.5 µM. The IC50 (Pyruvate kinase PKM [29]) was 100 µM, the Activity (HeLa [15]) was 12.55% and the Activity (HeLa [30]) was “Active”. The Activity (HeLa [17]) was 51.91%, the Activity (HeLa [18]) was 25.34% and the Activity (HeLa [6]) was “Active”. The Activity (HeLa [31]) was “Active”, the Activity (HeLa [32]) was “Active” and the inhibition (Pyruvate kinase PKM [2]) was “Dose-dependent effect”. The Activity (HeLa [20]) was 31.89%, the Activity (HeLa [21]) was 62.11% and the Activity (HeLa [22]) was 16.19%.

CC(C)=CC[C@@H](O)C1=CC(=O)c2c(O)ccc(O)c2C1=O [SHIKONIN] gave a Ratio IC50 (Homo sapiens) of 20, an IC50 (Pyruvate kinase PKM [28]) of 0.5 µM and an IC50 (Pyruvate kinase PKM [29]) of 10 µM.

In the case of Cc1ccc(C)n1-c1ccc(O)c(C(=O)O)c1, the Ratio IC50 (Homo sapiens) is reported as 8, the IC50 (Pyruvate kinase PKM [28]) is reported as 12.5 µM and the IC50 (Pyruvate kinase PKM [29]) is reported as 100 µM.
